In one assay the test system is Bacillus subtilis. The experiment in a line: Antibacterial activity against Bacillus subtilis MTCC 736 assessed as diameter of zone of inhibition at 500 ug/ml by agar disk diffusion method. Type of assay: functional. The settings on record: read-out: DIZ. Background: A growth-free zone around the sample is the usual read-out of agar diffusion tests.
Another assay relates to Salmonella typhi. The experiment in a line: Antibacterial activity against Salmonella typhi assessed as diameter of zone of inhibition at 500 ug/ml by agar disk diffusion method. Type of assay: functional, Salmonella enterica subsp. enterica serovar Typhi. The following applies: Salmonella enterica, read-out: DIZ.
A further assay concerns Escherichia coli. The experiment in a line: Antibacterial activity against Escherichia coli MTCC 443 assessed as diameter of zone of inhibition at 500 ug/ml by agar disk diffusion method. The settings on record: read-out: DIZ. Type of assay: functional.
The test system of another assay is Enterococcus faecalis. In words: Antibacterial activity against Enterococcus faecalis MTCC 439 assessed as diameter of zone of inhibition at 500 ug/ml by agar disk diffusion method. Type of assay: functional. The following applies: read-out: DIZ.
The next assay relates to Staphylococcus aureus. The experiment in a line: Antibacterial activity against Staphylococcus aureus MTCC 902 assessed as diameter of zone of inhibition at 500 ug/ml by agar disk diffusion method. Type of assay: functional. The settings on record: read-out: DIZ.
Another assay concerns Pseudomonas aeruginosa. In words: Antibacterial activity against Pseudomonas aeruginosa MTCC 2453 assessed as diameter of zone of inhibition at 500 ug/ml by agar disk diffusion method. Type of assay: functional. The following applies: read-out: DIZ.

Structures are written as SMILES.

For the molecule `Clc1ccc2c(NCC/N=C/c3c[nH]c4ccccc34)ccnc2c1`, the zone of inhibition at 500 µg/mL stood at 8 mm in the assay with Bacillus subtilis; 9 mm in the assay on Salmonella typhi; 10 mm in the assay with Escherichia coli; 9 mm in the assay with Enterococcus faecalis; 8 mm with Staphylococcus aureus; 7 mm in the assay with Pseudomonas aeruginosa.

Take `CN(C)c1ccc(/C=N/CCNc2ccnc3cc(Cl)ccc23)cc1`: the zone of inhibition at 500 µg/mL in the assay on Bacillus subtilis was found to be 8 mm; in the assay with Salmonella typhi it was 7 mm; in the assay on Escherichia coli it was 10 mm; in the assay with Enterococcus faecalis it was 8 mm; in the assay with Staphylococcus aureus, 9 mm; with Pseudomonas aeruginosa, 7 mm.

For `Clc1ccc(/C=N/CCNc2ccnc3cc(Cl)ccc23)cc1`, the zone of inhibition at 500 µg/mL worked out at 7 mm with Bacillus subtilis; 6 mm in the assay with Salmonella typhi; 6 mm in the assay on Escherichia coli; 6 mm in the assay with Enterococcus faecalis; 7 mm in the assay with Pseudomonas aeruginosa.

Regarding `Clc1ccc2c(NCC/N=C/c3ccc(Br)cc3)ccnc2c1`, the zone of inhibition at 500 µg/mL with Enterococcus faecalis turned out to be 8 mm.

For `O=C1Nc2c(cccc2[N+](=O)[O-])/C1=N/CCNc1ccnc2cc(Cl)ccc12`, the zone of inhibition at 500 µg/mL in the assay with Bacillus subtilis was 11 mm; with Staphylococcus aureus, 8 mm.

Consider `O=C1Nc2ccc(Br)cc2/C1=N/CCNc1ccnc2cc(Cl)ccc12`, for which the zone of inhibition at 500 µg/mL in the assay with Salmonella typhi and in the assay with Escherichia coli was 11 mm each time.

As for `FC(F)(F)c1ccc(/C=N/CCNc2ccnc3cc(Cl)ccc23)cc1`, the zone of inhibition at 500 µg/mL in the assay with Bacillus subtilis stood at 7 mm; with Salmonella typhi, 9 mm; with Escherichia coli, 10 mm; with Enterococcus faecalis it was 8 mm; with Staphylococcus aureus, 7 mm; in the assay on Pseudomonas aeruginosa, 8 mm.

As for `Clc1ccc2c(NCC/N=C/c3ccccc3Cl)ccnc2c1`, the zone of inhibition at 500 µg/mL in the assay with Bacillus subtilis worked out at 8 mm; in the assay on Salmonella typhi, 9 mm; in the assay on Escherichia coli, 8 mm; with Enterococcus faecalis, 9 mm; in the assay with Staphylococcus aureus it was 7 mm; with Pseudomonas aeruginosa, 9 mm.

Take `O=[N+]([O-])c1cccc(/C=N/CCNc2ccnc3cc(Cl)ccc23)c1`: the zone of inhibition at 500 µg/mL turned out to be 6 mm with Bacillus subtilis; 9 mm with Salmonella typhi; 9 mm in the assay on Escherichia coli; 8 mm in the assay on Enterococcus faecalis; 8 mm in the assay on Staphylococcus aureus; 6 mm with Pseudomonas aeruginosa.

Regarding `O=C1Nc2cc(F)ccc2/C1=N/CCNc1ccnc2cc(Cl)ccc12`, the zone of inhibition at 500 µg/mL in the assay with Salmonella typhi and in the assay on Staphylococcus aureus was 7 mm each time.

Turning to `COc1ccc2c(c1)/C(=N/CCNc1ccnc3cc(Cl)ccc13)C(=O)N2`, the zone of inhibition at 500 µg/mL worked out at 10 mm with Enterococcus faecalis and 11 mm in the assay on Pseudomonas aeruginosa.

Regarding `COc1ccc2c(c1)NC(=O)/C2=N\CCNc1ccnc2cc(Cl)ccc12`, the zone of inhibition at 500 µg/mL came to 10 mm in the assay on Salmonella typhi and 16 mm in the assay on Escherichia coli.

As for `Cc1cc(C)c2c(c1)/C(=N/CCNc1ccnc3cc(Cl)ccc13)C(=O)N2`, the zone of inhibition at 500 µg/mL in the assay with Escherichia coli came to 11 mm; in the assay with Staphylococcus aureus, 6 mm.

In the case of `O=C1Nc2ccccc2/C1=N/CCNc1ccnc2cc(Cl)ccc12`, the zone of inhibition at 500 µg/mL turned out to be 10 mm in the assay with Bacillus subtilis and 11 mm with Escherichia coli.

Consider `COc1cc(/C=N/CCNc2ccnc3cc(Cl)ccc23)ccc1O`, for which the zone of inhibition at 500 µg/mL stood at 6 mm in the assay on Salmonella typhi; 9 mm in the assay with Escherichia coli; 7 mm in the assay with Enterococcus faecalis; 6 mm with Staphylococcus aureus; 7 mm in the assay on Pseudomonas aeruginosa.

Consider `Cc1ccc(/C=N/CCNc2ccnc3cc(Cl)ccc23)cc1`, for which the zone of inhibition at 500 µg/mL came out at 6 mm in the assay with Salmonella typhi; 8 mm in the assay with Escherichia coli; 6 mm in the assay with Enterococcus faecalis; 6 mm in the assay with Staphylococcus aureus; 8 mm with Pseudomonas aeruginosa.

The values above are taken from ChEMBL document CHEMBL6078713, “Synthesis and mechanistic studies of 4-aminoquinoline-Isatin molecular hybrids and Schiff's bases as promising antimicrobial agents” (Eur J Med Chem, 2025).
